Here are results for ten compounds from PMC7038953 (2020).

Assay in all cases: fluorescence light-up, plate reader
Holding throughout (conditions): 100 mM K+ (KCl); 20 mM Tris-HCl, pH 7.8; 5 µM dye, 5 µM oligonucleotide; not an affinity constant

In assay [1] the test system is ON31 (RNA, G4) CACUGGUAGGUUGGUGUGGUUGGGGCCAGUG
Assay [2] relates to TBA31 (DNA, G4) CACTGGTAGGTTGGTGTGGTTGGGGCCAGTG
Assay [3] concerns ON15 (RNA, G4) GGUUGGUGUGGUUGG
The test system of assay [4] is TBA15 (DNA, G4) GGTTGGTGTGGTTGG
Assay [5] has as its system Tel23a (DNA, G4) AGGGTTAGGGTTAGGGTTAGGGT
Assay [6] has as its system TBA25 (DNA, G4) TGGTAGGTTGGTGTGGTTGGGGCCA
The subject of assay [7] is TBA63 (DNA, G4) ATAAAATAAAAAATTACACTGGTAGGTTGGTGTGGTTGGGGCCAGTGTAATTTTTTATTTTAT
The subject of assay [8] is ON1+2 (ON1-ON2 duplex) (DNA, duplex) ATAAAATAAAAAATTACACTGG/CCAGTGTAATTTTTTATTTTAT

Consider `CC(=O)C1=N/C(=C\c2c[nH]c3ccccc23)C(=O)N1C`, for which the “Fluorescence Intensity Enhancement” value was 19.0 ± 0.25 fold in assay [1]; 20.5 ± 0.22 fold in assay [2]; 7.1 ± 0.09 fold in assay [3]; 2.9 ± 0.11 fold in assay [4]; 7.1 ± 0.16 fold in assay [5]; 31.7 ± 0.40 fold in assay [6].
As to `COc1cc(/C=C2N=C(/C=C/c3ccncc3)N(C)C\2=O)cc(OC)c1O`, the “Fluorescence Intensity Enhancement” value in assay [1] is listed as 6.8 ± 0.13 fold; in assay [2], 16.5 ± 0.18 fold; in assay [4], 3.3 ± 0.13 fold; in assay [5] it was 6.2 ± 0.12 fold.
On to `CN1C(=O)/C(=C/c2ccc(O)cc2)N=C1/C=C/c1ccc(C(F)(F)F)cc1`, for which, in assay [1], the “Fluorescence Intensity Enhancement” value was found to be 2.5 ± 0.03 fold.
On to `CN1/C(=C/c2cc[n+](C)cc2)Sc2ccccc21`, for which the binding entry in assay [1] and in assay [3] was “yes” throughout.
Regarding `CN1C(=O)/C(=C/c2ccccc2)N=C1Nc1ccccc1`, the “Fluorescence Intensity Enhancement” value in assay [1] is 11.0 ± 0.13 fold; in assay [3], 4.7 ± 0.11 fold.
In the case of `CN1C(=O)/C(=C/c2ccc(O)cc2)N=C1/C=C/c1ccc(N(C)C)cc1`, the “Fluorescence Intensity Enhancement” value turned out to be 12.3 ± 0.13 fold in assay [2] and 20.6 ± 0.29 fold in assay [6].
In the case of `CN1C(=O)/C(=C/c2ccc(O)cc2)N=C1/C=C/c1ccc(Br)cc1`, the “Fluorescence Intensity Enhancement” value in assay [2] is listed as 7.4 ± 0.08 fold; in assay [4], 2.0 ± 0.08 fold.
In the case of `CN1C(=O)/C(=C/c2ccc(O)cc2)N=C1C(=O)c1ccccc1`, the entries for the “Fluorescence Intensity Enhancement” value in assay [3] and in assay [6] were 6.1 ± 0.10 fold and 8.7 ± 0.17 fold, respectively.
For the compound `CN1C(=O)/C(=C/c2ccc(O)cc2)N=C1/C=C/c1ccccc1F`, the “Fluorescence Intensity Enhancement” value in assay [6] worked out at 23.0 ± 0.25 fold.
`Cc1ccc(/C(O)=C/C2=NC(=C\c3ccc(O)cc3)/C(=O)N2C)cc1`: the “Fluorescence Intensity Enhancement” value stood at 18.8 ± 0.28 fold in assay [2]; 12.1 ± 0.15 fold in assay [7]; 4.0 ± 0.09 fold in assay [8]; 2.1 ± 0.12 fold in assay [4]; 12.4 ± 0.19 fold in assay [5]; 19.1 ± 0.21 fold in assay [6].
